Paper PMC5515887, “Ruthenium-conjugated chrysin analogues modulate platelet activity, thrombus formation and haemostasis with enhanced efficacy” (Scientific Reports, 2017)
Where two headings read alike, the source gives them in different places.

Tests used:
[1] = system: FAK; test: Immunoblot of FAK phosphorylation at Y397 in CRP-XL activated platelets; assay type: cell-based, human; settings: washed platelets, CRP-XL 0.5 μg/mL
Text: (§1) The calcium traces (Ai and Bi) shown are representative of three separate experiments. […] The platelets were lysed and used for immunoblot analysis to detect the level of AKT phosphorylation at residue S473, FAK phosphorylation at Y397 and phosphorylation of Src at Y527. The level of 14-3-3ζ protein was detected as a loading control. The cropped images of the blots shown here are representative of three separate experiments. The uncropped full length blots are presented in Supplementary Information (Figure S8).
(§2) Calcium mobilisation is associated with phosphoinositide 3-kinase (PI3K) signalling in platelets. Protein kinase B (AKT) is a downstream effector of PI3K and a key marker for the PI3K/AKT signalling pathway. […]
(§3) The preparation of human platelets and aggregation assays were performed using standard protocols as described by us previously, [16]. Briefly, human blood was collected in 3.2% citrate containing vacutainers via venepuncture from healthy, aspirin-free individuals with informed consent in accordance with the methods approved by the University of Reading Research Ethics Committee. […] Dense granule secretion in platelets was determined by measuring the ATP release using the luciferin-luciferase reagent by lumi-aggregometry (Chrono-Log, USA). […]

[2] = target: T1, human serum albumin (HSA) (Homo sapiens, UniProt P02768); test: HSA binding assay (TRANSIL XL HSA binding kit)
T1 construct: purchased Sovicell, Germany
Description: HSA binding assay was performed using TRANSIL^XL binding kit (Sovicell, Germany) according to the manufacturer’s protocol. […] The plate was then incubated on a plate shaker at 100 g for 12 minutes followed by centrifugation for 10 minutes at 750 g.

[3] = system: outside-in signalling by integrin αIIbβ3; test: Clot retraction assay (outside-in signalling by integrin αIIbβ3); assay type: cell-based, human; settings: PRP; 50 μM compound; 1 U/mL thrombin; three hours
Description: R represents ‘resting’ platelets.
Following fibrinogen binding, integrin αIIbβ3 triggers signalling into the platelets in order to induce clot retraction and promote wound healing. This also represents a late downstream signalling event in the platelet activation process. To determine whether chrysin and its derivatives affect outside-in signalling by integrin αIIbβ3, a clot retraction assay was performed. […] At three hours, the clot obtained with the vehicle control [0.1% (v/v) DMSO] retracted to around 50 mg.
PRP (200 µL) was mixed with 5 µL of red blood cells and the final volume was made to 950 µL with modified Tyrodes-HEPES buffer in the presence and absence of various concentrations of chrysin or its synthetic derivatives. Clot formation was initiated by adding 1 U/mL (50 µL) thrombin. A glass capillary was placed in middle of the tube and the clot retraction was observed over a period of 3 hours at room temperature. Clot weight was measured as a marker for clot retraction after 3 hours.

[4] = system: α-granule secretion in platelets; test: P-selectin exposure by flow cytometry (marker for α-granule secretion); assay type: cell-based, human; settings: PRP, CRP-XL 0.5 μg/mL
Description: Platelets primarily contain two types of granules (α- and dense granules) and the activation of platelets releases the granule contents to the external environment, where they play important roles in the stimulation of additional platelets and their recruitment to the growing thrombus. […] However, chrysin affected α-granule secretion only at a minimum concentration of 50 μM in platelets.
Figure 5 Chrysin and its derivatives affect granule secretion in platelets. […] The level of P-selectin (as a marker for α-granule secretion) was quantified using PECy5-labelled anti-human P-selectin antibodies by flow cytometry. […] R represents ‘resting’ platelets. […] Platelets were then activated with 0.5 μg/mL CRP-XL and the ATP release was monitored for 5 minutes by lumi-aggregometry. The traces shown are representative of three separate experiments.

[5] = system: platelet adhesion (integrins αIIbβ3 and α2β1); test: Static platelet adhesion assay on collagen, CRP-XL and fibrinogen; assay type: cell-based, human; settings: PRP; static conditions; in the presence and absence of integrilin (4 µM)
Description: Integrins αIIbβ3 and α2β1 play critical roles in platelet adhesion to different matrix proteins such as fibrinogen and collagen, respectively.
Micro titre plates (96 well) were coated with 1 μg/100 μL/well of fibrinogen, collagen or CRP-XL followed by incubation at 4 °C for overnight. Following the removal of unbound proteins/peptide, the wells were blocked with 1% bovine serum albumin in modified Tyrodes-HEPES buffer for 1 hour. The plates were then washed three times with modified Tyrode’s-HEPES buffer prior to adding human PRP (1 × 10^8 cells/mL, 50 μL/well) and incubated at room temperature for 1 hour. Non-adhered platelets were discarded and then the wells were washed with modified Tyrodes-HEPES buffer. Citrate lysis buffer (100 μL/well) was added and incubated for 1 hour at room temperature. Finally, 100 μL of 2 M NaOH was added to all the wells to stop the reaction and the absorbance was measured at 405 nm using a Fluostar Optima spectrofluorimeter (BMG Labtech, Germany). Experiments were performed both in the absence and presence of integrilin (4 μM) (an antagonist for integrin αIIbβ3).

[6] = system: Src; test: Immunoblot of Src phosphorylation at Y527 in CRP-XL activated platelets; assay type: cell-based, human; settings: washed platelets, CRP-XL 0.5 μg/mL
Text: as §1, §2, §3

T1 sequence (P02768 25-609): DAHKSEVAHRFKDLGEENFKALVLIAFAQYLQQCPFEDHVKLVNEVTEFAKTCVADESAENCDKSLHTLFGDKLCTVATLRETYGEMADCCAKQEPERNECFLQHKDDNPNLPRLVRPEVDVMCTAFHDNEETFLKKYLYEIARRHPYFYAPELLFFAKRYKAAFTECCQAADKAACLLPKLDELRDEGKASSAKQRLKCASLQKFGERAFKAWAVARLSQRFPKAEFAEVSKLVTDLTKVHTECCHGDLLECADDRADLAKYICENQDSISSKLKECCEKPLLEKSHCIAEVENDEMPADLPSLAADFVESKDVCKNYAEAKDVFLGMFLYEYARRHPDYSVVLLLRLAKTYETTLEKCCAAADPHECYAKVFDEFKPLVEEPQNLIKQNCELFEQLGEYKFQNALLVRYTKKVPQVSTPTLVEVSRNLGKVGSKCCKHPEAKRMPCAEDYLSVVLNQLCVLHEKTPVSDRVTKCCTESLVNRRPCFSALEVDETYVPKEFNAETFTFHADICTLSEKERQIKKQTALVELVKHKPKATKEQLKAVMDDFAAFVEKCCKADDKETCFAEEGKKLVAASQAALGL

Molecule	effect on FAK phosphorylation at Y397 [1]	Kd [2] [µM]	fraction unbound at 12 min, 50 µM ([2]; human, plasma)	effect on clot retraction [3]	concentrations that significantly inhibit α-granule secretion [4] [µM]	effect on platelet adhesion to collagen, CRP-XL or fibrinogen [5]	effect on dephosphorylation of Src at Y527 [6]	fraction bound to plasma (fb) ([2]; TRANSIL XL HSA binding kit) [%]	Kd ([2]; TRANSIL XL HSA binding kit, 50 µM compound, read-out: binding affinity (Kd) to HSA) [µM]	inhibition of α-granule secretion (P-selectin) ([4]; 100 μM compound)
O=c1cc(-c2ccccc2)oc2cc(O)cc(O)c12 [chrysin]	inhibited their phosphorylation in a concentration-dependent manner	1.93	0.003	did not show significant effects	≥ 50	did not affect platelet adhesion	significant impact on the dephosphorylation of Src at Y527	–	–	–
chlorido [(5-oxo-κO)-7-hydroxy-(2-phenyl)-4H-chromen-4-thionato-κS] (η6-p-cymene)ruthenium(II) [Ru-thio-chrysin]	inhibited their phosphorylation in a concentration-dependent manner	–	–	superior effects in comparison to native chrysin	≥ 12.5	did not affect platelet adhesion	significant impact on the dephosphorylation of Src at Y527	< 29.6	1400	approximately 80%
